In PubChem BioAssay (NCI):
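Dose response: 5 concentrations. Exposure: 48 h. Format: 96-well plates. Endpoint: linear interpolation; highest concentration if not reached. GI50: concentration for 50% inhibition of growth. TGI marks complete inhibition of growth.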

How the values were obtained:
Assay in all cases: NCI tumour cell line growth inhibition, 48 h
[1] = tested on: SF-539 CNS
[2] = tested on: SF-295 CNS
[3] = tested on: IGROV1 ovarian
[4] = tested on: NCI-H460 lung
[5] = tested on: CAKI-1 renal
[6] = tested on: HT29 colon
[7] = tested on: LOX IMVI melanoma
[8] = tested on: SK-OV-3 ovarian
[9] = tested on: MDA-MB-435
[10] = tested on: SR leukemia
[11] = tested on: UACC-62 melanoma
[12] = tested on: HL-60(TB) leukemia
[13] = tested on: HCT-15 colon
[14] = tested on: NCI-H522 lung
[15] = tested on: MDA-MB-231 breast
[16] = tested on: MCF7 breast
[17] = tested on: OVCAR-5 ovarian
[18] = tested on: RPMI-8226 leukemia
[19] = tested on: PC-3 prostate
[20] = tested on: NCI-H226 lung
[21] = tested on: K-562 leukemia
[22] = tested on: COLO 205 colon
[23] = tested on: EKVX NSCLC
[24] = tested on: M14 melanoma
[25] = tested on: UACC-257 melanoma
[26] = tested on: SNB-19 CNS
[27] = tested on: MOLT-4 leukemia
[28] = tested on: A498 renal
[29] = tested on: DU-145 prostate
[30] = tested on: ACHN renal
[31] = tested on: OVCAR-3 ovarian
[32] = tested on: UO-31 renal
[33] = tested on: NCI-H23 lung
[34] = tested on: OVCAR-8 ovarian
[35] = tested on: SK-MEL-2 melanoma
[36] = tested on: HOP-92 NSCLC
[37] = tested on: SK-MEL-5 melanoma
[38] = tested on: HS 578T breast
[39] = tested on: A549 NSCLC
[40] = tested on: NCI/ADR-RES ovarian
[41] = tested on: 786-0 renal
[42] = tested on: SF-268 CNS
[43] = tested on: SNB-75 CNS
[44] = tested on: TK-10 renal
[45] = tested on: SK-MEL-28 melanoma
[46] = tested on: RXF 393 renal
[47] = tested on: BT-549 breast
[48] = tested on: HOP-62 NSCLC
[49] = tested on: SW-620 colon
[50] = tested on: U251 CNS
[51] = tested on: OVCAR-4 ovarian
[52] = tested on: HCT-116 colon
[53] = tested on: SN12C renal
[54] = tested on: KM12 colon

Nc1cc(N)c2nc(-c3ccccc3)c(Oc3ccc(F)cc3)nc2c1
GI50 [1]: 18.1 µM
TGI [1]: 35.7 µM
GI50 [2]: 20.3 µM
TGI [2]: 38.5 µM
GI50 [3]: 28.5 µM
TGI [3]: > 100 µM
GI50 [4]: 39.6 µM
TGI [4]: > 100 µM
GI50 [5]: 19.4 µM
TGI [5]: 37 µM
GI50 [6]: 22.7 µM
TGI [6]: 50.7 µM
GI50 [7]: 43.3 µM
TGI [7]: > 100 µM
GI50 [8]: 20.7 µM
TGI [8]: 41.4 µM
GI50 [9]: 15.8 µM
TGI [9]: 32.6 µM
GI50 [10]: 8.15 µM
TGI [10]: > 100 µM
GI50 [11]: 15.8 µM
TGI [11]: 33.2 µM
GI50 [12]: 18.5 µM
TGI [12]: 64.8 µM
GI50 [13]: 36 µM
TGI [13]: > 100 µM
GI50 [14]: 64.7 µM
TGI [14]: > 100 µM
GI50 [15]: 3.87 µM
TGI [15]: 28.8 µM
GI50 [16]: 20.3 µM
TGI [16]: > 100 µM
GI50 [17]: 20.6 µM
TGI [17]: 47.6 µM
GI50 [18]: 12.2 µM
TGI [18]: 46.4 µM
GI50 [19]: 7.27 µM
TGI [19]: 46.3 µM
GI50 [20]: 20.3 µM
TGI [20]: 49.1 µM
GI50 [21]: 10.9 µM
TGI [21]: > 100 µM
GI50 [22]: 20 µM
TGI [22]: 36.5 µM
GI50 [23]: 14.6 µM
TGI [23]: 33.7 µM
GI50 [24]: 17.1 µM
TGI [24]: 45 µM
GI50 [25]: 23.2 µM
TGI [25]: 42.6 µM
GI50 [26]: 17.3 µM
TGI [26]: 33.8 µM
GI50 [27]: 6.58 µM
TGI [27]: > 100 µM
GI50 [28]: 21.9 µM
TGI [28]: 39.6 µM
GI50 [29]: 17.2 µM
TGI [29]: 36.8 µM
GI50 [30]: 21.8 µM
TGI [30]: 85.9 µM
GI50 [31]: 15.4 µM
TGI [31]: 41.7 µM
GI50 [32]: 29.6 µM
TGI [32]: > 100 µM
GI50 [33]: 20.7 µM
TGI [33]: 40.2 µM
GI50 [34]: 22.5 µM
TGI [34]: 47.4 µM
GI50 [35]: 43 µM
TGI [35]: > 100 µM
GI50 [36]: 12.2 µM
TGI [36]: 29.8 µM
GI50 [37]: 12.2 µM
TGI [37]: 31.8 µM
GI50 [38]: 19.8 µM
TGI [38]: 53.7 µM
GI50 [39]: 24.2 µM
TGI [39]: 46.3 µM
GI50 [40]: 18.2 µM
TGI [40]: 36.1 µM
GI50 [41]: 15.7 µM
TGI [41]: 36.3 µM
GI50 [42]: 13.8 µM
TGI [42]: 47.6 µM
GI50 [43]: 23.5 µM
TGI [43]: 49.4 µM
GI50 [44]: 20.4 µM
TGI [44]: 46.3 µM
GI50 [45]: 19.4 µM
TGI [45]: 46.5 µM
GI50 [46]: 21.1 µM
TGI [46]: 46.5 µM
GI50 [47]: 15 µM
TGI [47]: 34.8 µM
GI50 [48]: 21.5 µM
TGI [48]: 49.5 µM
GI50 [49]: 19.5 µM
TGI [49]: 50.1 µM
GI50 [50]: 23.2 µM
TGI [50]: 78.6 µM
GI50 [51]: 8.32 µM
TGI [51]: 35.2 µM
GI50 [52]: 14.8 µM
TGI [52]: 80.7 µM
GI50 [53]: 19.3 µM
TGI [53]: 52.7 µM
GI50 [54]: 14.5 µM
TGI [54]: 40.3 µM
